Data: US20050042172A1, “Administration of medicaments by vaporisation” (priority 2001, published 2005)

Columns and labels:
[1] = Reports of subjects taking THCV; type: in vivo
Description: In a further aspect the invention also provides compositions which have specific ratios of tetrahydrocannabinovarin (THCV) or cannabidivarin (CBDV).

[2] = Pain relief, THC alone versus cannabis extract
[3] = some clinical studies and anecdotal reports; a perception; cited from earlier work

CCCc1cc(O)c2c(c1)OC(C)(C)[C@@H]1CCC(C)=C[C@@H]21 [THCV, tetrahydrocannabinovarin]
hangover [1]: less severe hangover
mood enhancement ([1]; compared with THC): less disturbing than that produced by THC

CCCCCc1cc(O)c2c(c1)OC(C)(C)[C@@H]1CCC(C)=C[C@@H]21 [THC, tetrahydrocannabinol]
degree of pain relief [2]: lower degree of pain relief

C=C(C)[C@@H]1CCC(C)=C[C@H]1c1c(O)cc(CCCCC)cc1O [CBD, cannabidiol]
effect on psychoactive effects of THC [3]: modifies the psychoactive effects of THC
